{"source": "patent US20200190470A1", "about": "“TEMOZOLOMIDE RESISTANT CELLS AND AN INTEGRATED METHOD FOR CHARACTERIZING THE SAME” (Council of Scientific & Industrial Research, priority 2018, published 2020)", "key": {"U87MG cells": {"tested_on": "U87MG cells", "assay": "TMZ dose response, MTT cell viability assay, U87MG", "design": "AUC (area under dose response curve): unit not given beside the values"}, "[1]": {"tested_on": "differentiated cells (NDx) of NSP", "assay": "TMZ dose response of differentiated NSP cells (NDx)", "settings": "Homo sapiens", "protocol": "For dose-response experiments, four replicates at ˜20,000 cells per well were plated in 96-well Nunc™ tissue culture plates in full growth medium for 24 h, treated with different doses of TMZ in serial dilutions (0.05Me5M) followed by cell viability tests using the MTT assay. Appropriate cell controls (without TMZ treatment) were used to calculate IC50."}, "[2]": {"tested_on": "NSP cells (neurospheres derived from U87MG)", "assay": "TMZ dose response, MTT cell viability assay, neurospheres (NSP)", "design": "AUC (area under dose response curve): unit not given beside the values"}}}
{"molecule": "Cn1nnc2c(C(N)=O)ncn2c1=O", "note": "[Temozolomide]", "values": [{"measurement": "IC50", "setting": "U87MG cells; Homo sapiens, U-87 MG", "result": 746, "unit": "µM"}, {"measurement": "AUC (area under dose response curve)", "setting": "U87MG cells; U87MG", "result": 53039}, {"measurement": "Emax", "setting": "U87MG cells; U87MG", "result": 25.53}, {"measurement": "Log2 (Hill Slope)", "setting": "U87MG cells; U87MG", "result": "−1.959"}, {"measurement": "IC50", "setting": "[1]", "result": 818, "unit": "µM"}, {"measurement": "IC50", "setting": "[2]; Homo sapiens, U-87 MG", "result": 1040, "unit": "µM"}, {"measurement": "fold resistance ratio", "setting": "[2]; NSP relative to U87MG", "result": 1.41}, {"measurement": "AUC (area under dose response curve)", "setting": "[2]; Neurospheres (NSP)", "result": 276836}, {"measurement": "Emax", "setting": "[2]; Neurospheres (NSP)", "result": 49.29}, {"measurement": "Log2 (Hill Slope)", "setting": "[2]; Neurospheres (NSP)", "result": 0}]}
